Results published in PMC3090393, “New Noncovalent Inhibitors of Penicillin-Binding Proteins from Penicillin-Resistant Bacteria” (PLoS ONE, 2011).
≈ marks a conversion by molar mass, not a printed value.

Key:
PBP2a = target: T1, PBP2a (Staphylococcus aureus, UniProt P07944); assay: PBP2a enzymatic inhibition assay (fluorescein-labeled ampicillin, residual penicillin binding activity); format: biochemical, Staphylococcus aureus ATCC 43300; conditions: for remaining activity at 1000 µM: 4 h, residual activity of the enzyme at 1 mM inhibitor, 0.01% Triton X-100, mean of three experiments, read-out: PBP2a RA [%]; for IC50: in the presence of 0.01% Triton X-100
T1 construct: made in house
Experimental: (§1) PBP2a from Staphylococcus aureus ATCC 43300 and PBP5fm from Enterococcus faecium D63r were overproduced and purified as described previously, [18].
(§2) Each of the purified PBPs (2.5 µM) were first incubated with 1 mM potential inhibitor in 100 mM phosphate buffer, 0.01% Triton X-100[19], pH 7, for 4 h at 30°C. Then, 25 µM fluorescein-labeled ampicillin[20] was added to detect the residual penicillin binding activity (RA). The samples were further incubated for 30 min at 37°C in a total volume of 20 µL. Denaturation buffer was added (0.1 M Tris/HCl, pH 6.8, containing 25% glycerol, 2% SDS, 20% β-mercaptoethanol and 0.02% bromophenol blue) and the samples were heated to 100°C for 1 min. The samples were then loaded onto a 10% SDS-acrilamide gel (10×7 cm) and electrophoresis was performed for 45 min at 180 V (12 mA). Detection and quantification of the RAs were with Molecular Image FX equipment and Quantity One software (BioRad, Hercules, CA, USA). Three independent experiments were carried out for each inhibitor.

[1] = tested on: Proteus mirabilis ATCC 29936; assay: In-vitro antibacterial activity (MIC, broth microdilution); format: cell-based; conditions: ATCC29936
Experimental: (§3) Determination of the antibacterial activities was carried out on microtiter plates, in 200 µL (final volume) of Müeller-Hinton Broth (MHB), following EUCAST (European Committee on Antimicrobial Susceptibility testing)/CLSI (Clinical and Laboratory Standard Institute) recommended procedures, [25]. The compounds were solubilized in MHB, just before use. Inocula were prepared for each strain by resuspending isolated colonies from 18 h cultured plates. Equivalents of 0.5 Mac Farland turbidity standards (approximately 1×10^8 CFU mL^−1) were prepared in saline solution ([…]) and then diluted 200-fold in MBH.

[2] = tested on: Staphylococcus aureus mp 1 (inducible MRSA); assay: as above; format: cell-based
Experimental: as §3

[3] = tested on: Pseudomonas aeruginosa ATCC 27853; assay: as above; format: cell-based; conditions: ATCC27853
Experimental: as §3

[4] = tested on: Escherichia coli ATCC 8739; assay: as above; format: cell-based; conditions: ATCC8739
Experimental: as §3

[5] = tested on: Enterococcus hirae ATCC 8790; assay: as above; format: cell-based; conditions: ATCC8790
Experimental: as §3

[6] = tested on: Streptococcus pneumoniae ATCC 33400; assay: as above; format: cell-based; conditions: ATCC33400
Experimental: as §3

[7] = tested on: Enterococcus faecium ATCC 19434; assay: as above; format: cell-based; conditions: ATCC19434
Experimental: as §3

[8] = tested on: Micrococcus luteus ATCC 9341; assay: as above; format: cell-based; conditions: ATCC9341
Experimental: as §3

[9] = tested on: Streptococcus pneumoniae D39; assay: as above; format: cell-based
Experimental: as §3

[10] = tested on: Enterococcus faecalis ATCC 7937; assay: as above; format: cell-based; conditions: ATCC7937
Experimental: as §3

[11] = tested on: Listeria monocytogenes ATCC 14780; assay: as above; format: cell-based; conditions: ATCC14780
Experimental: as §3

[12] = tested on: Listeria innocua ATCC 33090; assay: as above; format: cell-based; conditions: ATCC33090
Experimental: as §3

[13] = tested on: Staphylococcus aureus ATCC 43300 (MRSA); assay: as above; format: cell-based
Experimental: as §3

[14] = tested on: Streptococcus pneumoniae ATCC 49619; assay: as above; format: cell-based; conditions: ATCC49619
Experimental: as §3

[15] = tested on: Enterococcus faecalis ATCC 29212; assay: as above; format: cell-based; conditions: ATCC29212
Experimental: as §3

[16] = tested on: Citrobacter freundii ATCC 8090; assay: as above; format: cell-based; conditions: ATCC8090
Experimental: as §3

[17] = tested on: Staphylococcus aureus ATCC 25923; assay: as above; format: cell-based; conditions: ATCC25923
Experimental: as §3

[18] = tested on: Bacillus subtilis ATCC 6633; assay: as above; format: cell-based; conditions: ATCC6633
Experimental: as §3

[19] = tested on: Klebsiella pneumoniae ATCC 13883; assay: as above; format: cell-based; conditions: ATCC13883
Experimental: as §3

[20] = tested on: Staphylococcus epidermidis ATCC 12228; assay: as above; format: cell-based; conditions: ATCC12228
Experimental: as §3

PBP2x 5204 = PBP2x 5204 (Streptococcus pneumoniae, UniProt P59676); assay: PBP2x 5204 enzymatic inhibition assay (S2d hydrolysis, DTNB); format: biochemical, Streptococcus pneumoniae strain 5204; conditions: for PBP2x5204 RA [%]: 240 min
Experimental: PBP2x-5204 from Streptococcus pneumonia and N-benzoyl-D-alanyl-thioglycolate S2d[21], [22] were prepared as previously described. All assays with PBP2x 5204 were carried out in 96-well microtiter plates (Brand, Wertheim, Germany). PBP2x 5204 (0.6 µM) was incubated in the presence of the potential inhibitors in 10 mM sodium phosphate buffer (pH 7.0) containing 70 mM D-alanine and 0.01 mg/mL BSA, for 4 h at 25°C. This preincubation was used to also detect slow binding inhibitors. After the preincubation, the RA of PBP2x 5204 was determined. The initial rate of hydrolysis of 1 mM S2d in the presence of 1 mM DTNB was determined by monitoring the increase in absorbance at 412 nm (DTNB: ε[Δ ε] = […]) using a microplate absorbance reader (Power Wave X, Biotek Instruments, Winooski, U.S.A.). The rate of spontaneous hydrolysis of S2d in the presence of the potential inhibitors was also determined in the absence of PBP2x 5204. All of the assays were carried out in triplicate. The determination of the RA of PBP2x 5204 in the absence of inhibitors was carried out six times on each plate. A test compound was considered as an inhibitor if the RA was <80%. In this case, to reveal false positives, the assays were also carried out under the same conditions in the presence of 0.01% Triton X-100. As described in the literature, promiscuous inhibitors (false positives) are slow binding, noncompetitive inhibitors. To avoid detailed kinetic investigations, it is possible to identify such compounds by carrying out the assays in the presence of Triton X-100[14], [19]. Promiscuous inhibitors show no inhibition in the presence of Triton X-100. The IC50 values in the presence of Triton X-100 were determined if the RAs were <50%. (RA: ∼50%, IC50∼c, c: concentration of compound in the assay; RA >50%, IC50 > c). The RA was measured over a range of concentrations, from which the IC50 values were determined by non-linear regression analysis, using Sigma Plot (Systat software) and fitting the data to the equation y = y0+(a×b)/(b+x)[23].

PBP5fm = PBP5fm (Enterococcus faecium, UniProt Q47759); assay: PBP5fm enzymatic inhibition assay (fluorescein-labeled ampicillin, residual penicillin binding activity); format: biochemical, Enterococcus faecium D63r; conditions: 4 h; residual activity of the enzyme at 1 mM inhibitor; 0.01% Triton X-100; read-out: PBP5fm RA [%]
Experimental: as §1, §2

[21] = residual activity of the enzyme at 1 mM inhibitor

PBP5fm, sequence (Q47759 entry or part of it): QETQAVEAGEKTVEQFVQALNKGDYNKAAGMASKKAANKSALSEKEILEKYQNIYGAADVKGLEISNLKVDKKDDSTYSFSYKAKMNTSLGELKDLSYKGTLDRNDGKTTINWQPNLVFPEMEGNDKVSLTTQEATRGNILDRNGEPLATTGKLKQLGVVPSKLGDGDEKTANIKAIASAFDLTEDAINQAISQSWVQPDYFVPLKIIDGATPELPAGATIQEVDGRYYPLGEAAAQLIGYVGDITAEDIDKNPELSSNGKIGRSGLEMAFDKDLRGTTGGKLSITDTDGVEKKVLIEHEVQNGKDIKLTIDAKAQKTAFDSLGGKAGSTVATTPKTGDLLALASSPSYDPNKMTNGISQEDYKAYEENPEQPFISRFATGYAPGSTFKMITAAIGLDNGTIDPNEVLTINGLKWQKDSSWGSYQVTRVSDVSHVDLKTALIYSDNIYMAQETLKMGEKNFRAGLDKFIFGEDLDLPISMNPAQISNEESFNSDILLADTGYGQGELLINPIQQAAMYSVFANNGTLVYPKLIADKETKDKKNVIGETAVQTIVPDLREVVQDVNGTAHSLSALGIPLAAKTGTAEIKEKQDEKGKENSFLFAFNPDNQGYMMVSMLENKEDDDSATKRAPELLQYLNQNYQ
PBP2x 5204, sequence (P59676 49-750): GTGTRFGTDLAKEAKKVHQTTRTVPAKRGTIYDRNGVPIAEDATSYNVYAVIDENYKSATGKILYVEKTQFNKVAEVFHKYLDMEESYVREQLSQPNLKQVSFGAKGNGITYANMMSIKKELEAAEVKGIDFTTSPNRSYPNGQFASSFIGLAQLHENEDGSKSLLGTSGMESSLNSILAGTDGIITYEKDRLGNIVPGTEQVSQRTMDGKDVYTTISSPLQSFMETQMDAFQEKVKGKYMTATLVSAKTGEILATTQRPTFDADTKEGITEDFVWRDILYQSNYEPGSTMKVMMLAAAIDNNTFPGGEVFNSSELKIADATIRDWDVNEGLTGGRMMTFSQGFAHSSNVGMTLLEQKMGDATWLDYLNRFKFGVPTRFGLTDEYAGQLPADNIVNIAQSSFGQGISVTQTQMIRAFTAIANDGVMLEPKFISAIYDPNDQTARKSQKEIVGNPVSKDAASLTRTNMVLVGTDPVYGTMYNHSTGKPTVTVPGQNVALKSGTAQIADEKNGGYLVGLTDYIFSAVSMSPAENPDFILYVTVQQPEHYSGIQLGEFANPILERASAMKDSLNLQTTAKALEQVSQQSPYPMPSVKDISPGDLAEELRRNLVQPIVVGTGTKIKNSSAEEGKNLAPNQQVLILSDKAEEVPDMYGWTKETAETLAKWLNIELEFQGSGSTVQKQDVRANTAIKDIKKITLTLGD
T1 sequence (P07944 whole entry): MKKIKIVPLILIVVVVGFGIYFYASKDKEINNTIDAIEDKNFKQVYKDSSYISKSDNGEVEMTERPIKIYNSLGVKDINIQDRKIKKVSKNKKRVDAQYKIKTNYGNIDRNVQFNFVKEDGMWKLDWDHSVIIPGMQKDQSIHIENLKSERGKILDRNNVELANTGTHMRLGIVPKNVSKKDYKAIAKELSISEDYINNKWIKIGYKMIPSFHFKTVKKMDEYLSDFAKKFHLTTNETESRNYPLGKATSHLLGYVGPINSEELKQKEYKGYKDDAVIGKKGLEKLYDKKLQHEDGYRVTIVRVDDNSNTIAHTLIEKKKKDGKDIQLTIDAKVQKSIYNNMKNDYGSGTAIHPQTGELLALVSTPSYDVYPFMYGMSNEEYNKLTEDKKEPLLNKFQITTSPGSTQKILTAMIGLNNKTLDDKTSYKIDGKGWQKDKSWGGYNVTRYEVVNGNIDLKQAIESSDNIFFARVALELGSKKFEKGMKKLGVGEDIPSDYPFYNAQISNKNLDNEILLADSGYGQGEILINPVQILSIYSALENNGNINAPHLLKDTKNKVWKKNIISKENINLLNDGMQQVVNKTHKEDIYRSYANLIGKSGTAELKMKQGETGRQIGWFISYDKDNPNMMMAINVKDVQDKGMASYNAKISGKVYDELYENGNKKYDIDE

SMILES | remaining activity at 1000 µM (PBP2a) | IC50 (PBP2a) | MIC [1] | MIC [2] | MIC [3] | MIC [4] | MIC [5] | MIC [6] | MIC [7] | MIC [8] | MIC [9] | MIC [10] | MIC [11] | MIC [12] | MIC [13] | MIC [14] | MIC [15] | MIC [16] | PBP2x5204 RA [%] (PBP2x 5204; [21]) | activity at 1000 µM (PBP5fm) | further results
CCCOc1ccc(C(=O)Nc2ccc(Br)cc2C(=O)O)cc1 [compound 6, 5-Bromo-2-(4-propoxybenzamido)benzoic acid] | 0% | 210 µM | > 512 µg/mL | 128 µg/mL (≈ 338 µM) | > 512 µg/mL | > 512 µg/mL | 32 µg/mL (≈ 84.6 µM) | 64 µg/mL (≈ 169 µM) | 256 µg/mL (≈ 677 µM) | 32 µg/mL (≈ 84.6 µM) | 16 µg/mL (≈ 42.3 µM) | 64 µg/mL (≈ 169 µM) | 64 µg/mL (≈ 169 µM) | 64 µg/mL (≈ 169 µM) | 128 µg/mL (≈ 338 µM) | 32 µg/mL (≈ 84.6 µM) | 32 µg/mL (≈ 84.6 µM) | > 512 µg/mL | 41% | 68% | MIC [17]: 16 µg/mL (≈ 42.3 µM); MIC [18]: 128 µg/mL (≈ 338 µM); MIC [19]: > 512 µg/mL; MIC [20]: 16 µg/mL (≈ 42.3 µM)
CCCOc1ccc(C(=O)Nc2ccc(O)cc2C(=O)O)cc1 [compound 7, 5-Hydroxy-2-(4-propoxybenzamido)benzoic acid] | 74% |  |  |  |  |  |  |  |  |  |  |  |  |  |  |  |  |  | 65% | 72% | 
CCCOc1ccc(C(=O)Nc2ccccc2C(=O)O)cc1 [compound 8, 2-(4-Propoxybenzamido)benzoic acid] | 60% |  |  |  |  |  |  |  |  |  |  |  |  |  |  |  |  |  | 103% | 74% | 
CCCOc1cccc(C(=O)Nc2ccc(Br)cc2C(=O)O)c1 [compound 9, 5-Bromo-2-(3-propoxybenzamido)benzoic acid] | 0% | 230 µM | > 512 µg/mL | 32 µg/mL (≈ 84.6 µM) | > 512 µg/mL | > 512 µg/mL | 16 µg/mL (≈ 42.3 µM) | 1 µg/mL (≈ 2.64 µM) | 16 µg/mL (≈ 42.3 µM) | 16 µg/mL (≈ 42.3 µM) | 1 µg/mL (≈ 2.64 µM) | 64 µg/mL (≈ 169 µM) | 16 µg/mL (≈ 42.3 µM) | 16 µg/mL (≈ 42.3 µM) | 32 µg/mL (≈ 84.6 µM) | 1 µg/mL (≈ 2.64 µM) | 64 µg/mL (≈ 169 µM) | > 512 µg/mL |  | 72% | MIC [17]: 32 µg/mL (≈ 84.6 µM); MIC [18]: 32 µg/mL (≈ 84.6 µM); MIC [19]: > 512 µg/mL; MIC [20]: 8 µg/mL (≈ 21.2 µM); IC50 (PBP2x 5204; read-out: PBP2x5204 IC50, in the presence of 0.01% Triton X-100): 155 µM; PBP2x5204 RA [%] (PBP2x 5204; residual activity of the enzyme at 500 µM inhibitor): 8%
CCCOc1cccc(C(=O)Nc2ccc(C)cc2C(=O)O)c1 [compound 10, 5-Methyl-2-(3-propoxybenzamido)benzoic acid] | 17% | 680 µM | > 512 µg/mL | 256 µg/mL (≈ 817 µM) | > 512 µg/mL | > 512 µg/mL | 128 µg/mL (≈ 408 µM) | 2 µg/mL (≈ 6.38 µM) | 128 µg/mL (≈ 408 µM) | 256 µg/mL (≈ 817 µM) | 2 µg/mL (≈ 6.38 µM) | 256 µg/mL (≈ 817 µM) | 32 µg/mL (≈ 102 µM) | 256 µg/mL (≈ 817 µM) | 256 µg/mL (≈ 817 µM) | 2 µg/mL (≈ 6.38 µM) | 256 µg/mL (≈ 817 µM) | > 512 µg/mL | 121% | 69% | MIC [17]: 128 µg/mL (≈ 408 µM); MIC [18]: 256 µg/mL (≈ 817 µM); MIC [19]: > 512 µg/mL; MIC [20]: 128 µg/mL (≈ 408 µM)
CCCOc1cccc(C(=O)Nc2ccc(O)cc2C(=O)O)c1 [compound 11, 5-Hydroxy-2-(3-propoxybenzamido)benzoic acid] | 70% |  |  |  |  |  |  |  |  |  |  |  |  |  |  |  |  |  | 118% | 61% | 
